Experimental data taken from US10544120B2, “Biaryl kinase inhibitors” (BRISTOL-MYERS SQUIBB COMPANY, priority 2015, dated 2020).

These compounds were tested against GST-Xa-hAAK1 (Homo sapiens (Human), UniProt Q2M2I8) (assay: AAK1 Kinase Assay). Conditions: bacterially expressed GST-Xa-hAAK1 3.5 nM; ATP 22 μM; fluoresceinated peptide 1.5 μM; 3 hours at room temperature; Caliper LabChip 3000.
Format: biochemical
Method: The assays were performed in U-bottom 384-well plates. […] The reactions were initiated by the combination of bacterially expressed, GST-Xa-hAAK1 with substrates and test compounds. The reactions were incubated at room temperature for 3 hours and terminated by adding 60 μl of 35 mM EDTA buffer to each sample. The reactions were analyzed on the Caliper LabChip 3000 (Caliper, Hopkinton, Mass.) by electrophoretic separation of the fluorescent substrate and phosphorylated product. […] Compounds were dissolved at 10 mM in dimethylsulfoxide (DMSO) and evaluated at eleven concentrations. IC50 values were derived by non-linear regression analysis.

Sequence of GST-Xa-hAAK1 (Q2M2I8 whole entry): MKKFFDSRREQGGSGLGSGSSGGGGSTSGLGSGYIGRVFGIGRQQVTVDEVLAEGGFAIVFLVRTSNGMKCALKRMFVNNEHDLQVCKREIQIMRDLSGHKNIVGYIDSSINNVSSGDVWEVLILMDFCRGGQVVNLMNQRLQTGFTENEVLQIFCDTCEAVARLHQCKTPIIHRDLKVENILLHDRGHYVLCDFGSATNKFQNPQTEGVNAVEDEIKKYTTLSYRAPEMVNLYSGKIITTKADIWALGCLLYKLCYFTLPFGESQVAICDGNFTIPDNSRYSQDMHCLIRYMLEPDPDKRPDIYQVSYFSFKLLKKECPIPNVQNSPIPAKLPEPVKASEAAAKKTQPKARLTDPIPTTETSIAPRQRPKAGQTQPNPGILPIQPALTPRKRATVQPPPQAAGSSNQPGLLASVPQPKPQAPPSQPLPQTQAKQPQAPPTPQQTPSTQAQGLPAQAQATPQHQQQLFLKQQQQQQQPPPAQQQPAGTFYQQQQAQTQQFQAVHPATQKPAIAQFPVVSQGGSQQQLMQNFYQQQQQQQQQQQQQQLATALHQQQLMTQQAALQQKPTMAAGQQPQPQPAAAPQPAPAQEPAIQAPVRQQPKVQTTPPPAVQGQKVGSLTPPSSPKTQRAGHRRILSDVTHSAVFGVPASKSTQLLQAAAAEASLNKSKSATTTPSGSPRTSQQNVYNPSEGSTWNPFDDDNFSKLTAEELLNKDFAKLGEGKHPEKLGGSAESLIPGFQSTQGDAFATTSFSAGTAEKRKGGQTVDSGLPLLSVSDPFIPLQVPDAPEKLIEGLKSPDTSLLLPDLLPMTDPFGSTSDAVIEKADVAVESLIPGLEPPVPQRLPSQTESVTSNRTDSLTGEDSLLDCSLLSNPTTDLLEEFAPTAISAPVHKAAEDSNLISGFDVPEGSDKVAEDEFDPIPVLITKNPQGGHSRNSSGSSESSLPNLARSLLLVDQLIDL

Going from COC(=O)Nc1cc(-c2ccc(OC[C@@](C)(N)CC(C)C)c(C#N)c2)cnn1 [Example 300, (S)-methyl (5-(4-((2-amino-2,4-dimethylpentyl)oxy)-3-cyanophenyl)pyridazin-3-yl)carbamate] to COC(=O)Nc1nccc(-c2ccc(OC[C@@](C)(N)CC(C)C)c(C#N)c2)n1 [Example 305, (S)-methyl (4-(4-((2-amino-2,4-dimethylpentyl)oxy)-3-cyanophenyl)pyrimidin-2-yl)carbamate], the IC50 falls from 246 nM to 1 nM (250-fold).

Compared with COC(=O)Nc1nccc(-c2cnc(OC[C@](C)(N)CC(C)C)c(F)c2)n1 [Example 373, (R)-methyl (4-(6-((2-amino-2,4-dimethylpentyl)oxy)-5-fluoropyridin-3-yl)pyrimidin-2-yl)carbamate], COC(=O)Nc1nccc(-c2cnc(OC[C@@](C)(N)CC(C)C)c(C)c2)n1 [Example 379, (S)-methyl (4-(6-((2-amino-2,4-dimethylpentyl)oxy)-5-methylpyridin-3-yl)pyrimidin-2-yl)carbamate] is 20-fold lower in IC50: 684 nM for the first, 35 nM for the second.

Going from CCc1cc(-c2ccc(OC[C@@](C)(N)CC(C)C)c(C#N)c2)ncn1 [Example 443, (S)-2-((2-amino-2,4-dimethylpentyl)oxy)-5-(6-ethylpyrimidin-4-yl)benzonitrile] to CC(C)C[C@](C)(N)COc1ccc(-c2cc(N)ncn2)cc1Cl [Example 285, (S)-6-(4-((2-amino-2,4-dimethylpentyl)oxy)-3-chlorophenyl)pyrimidin-4-amine], the IC50 falls from 46 nM to 1.1 nM (42-fold). The second is the more potent here.

Cc1nccc(-c2ccc(OC[C@@](C)(N)CC(C)C)c(Cl)c2)n1 [Example 469, (S)-1-(2-chloro-4-(2-methylpyrimidin-4-yl)phenoxy)-2,4-dimethylpentan-2-amine] and Cc1nccc(-c2ccc(OC[C@@](C)(N)CC(C)C)c(CF)c2)n1 [Example 352, (S)-1-(2-(fluoromethyl)-4-(2-methylpyrimidin-4-yl)phenoxy)-2,4-dimethylpentan-2-amine] are within 1.5-fold of each other in IC50: 1.5 nM for the first, 1.4 nM for the second.

Going from CC(C)C[C@](C)(N)COc1ccc(-c2ccnc(Cl)n2)cc1C(F)(F)F [Example 370, (S)-1-(4-(2-chloropyrimidin-4-yl)-2-(trifluoromethyl)phenoxy)-2,4-dimethylpentan-2-amine] to COc1nccc(-c2ccc(OC[C@@](C)(N)CC(C)C)c(C(F)(F)F)c2)n1 [Example 316, (S)-1-(4-(2-methoxypyrimidin-4-yl)-2-(trifluoromethyl)phenoxy)-2,4-dimethylpentan-2-amine], the IC50 rises from 1.4 nM to 8.2 nM (5.9-fold).

Compared with Cc1cc(-c2cc(C(F)(F)F)c(OCC(C)(N)CC(C)C)cn2)ccn1 (stereo in doubt) [Example 164, (R)-2,4-dimethyl-1-((2′-methyl-4-(trifluoromethyl)-[2,4′-bipyridin]-5-yl)oxy)pentan-2-amine], CC(C)C[C@](C)(N)COc1ccc(-c2cc(N)ncn2)cc1C(F)(F)F [Example 278, (S)-6-(4-((2-amino-2,4-dimethylpentyl)oxy)-3-(trifluoromethyl)phenyl) pyrimidin-4-amine] is 130-fold lower in IC50: 254 nM for the first, 1.9 nM for the second. The second is the more potent here.

Compared with Cc1cc(-c2ccc(OC[C@@](C)(N)CC(C)C)c(CF)n2)ncn1 [Example 387, (S)-1-((2-(fluoromethyl)-6-(6-methylpyrimidin-4-yl)pyridin-3-yl)oxy)-2,4-dimethylpentan-2-amine], CC(C)C[C@](C)(N)COc1ccc(-c2ccnc(C(F)F)c2)nc1CF [Example 325, (S)-1-((2′-(difluoromethyl)-6-(fluoromethyl)-[2,4′-bipyridin]-5-yl)oxy)-2,4-dimethylpentan-2-amine] is 560-fold lower in IC50: 1010 nM for the first, 1.8 nM for the second. The second is the more potent here.

Compared with COC(=O)Nc1nccc(-c2ccc(OC[C@@](C)(N)CC(C)C)c(F)c2)n1 [Example 310, (S)-methyl (4-(4-((2-amino-2,4-dimethylpentyl)oxy)-3-fluorophenyl)pyrimidin-2-yl)carbamate], COC(=O)Nc1nccc(-c2ccc(OC[C@@](C)(N)CC(C)C)c(C(F)(F)F)c2)n1 [Example 306, (S)-methyl(4-(4-((2-amino-2,4-dimethylpentyl)oxy)-3-(trifluoromethyl)phenyl)pyrimidin-2-yl)carbamate] is 15-fold lower in IC50: 9.1 nM for the first, 0.6 nM for the second.

COC(=O)Nc1cc(-c2cnc(OC[C@@](C)(N)CC(C)C)c(C)c2)ncn1 [Example 438, (S)-methyl (6-(6-((2-amino-2,4-dimethylpentyl)oxy)-5-methylpyridin-3-yl)pyrimidin-4-yl)carbamate] and COC(=O)Nc1cc(-c2cc(F)c(OC[C@@](C)(N)CC(C)C)cc2F)ncn1 [Example 507, (S)-methyl (6-(4-((2-amino-2,4-dimethylpentyl)oxy)-2,5-difluorophenyl)pyrimidin-4-yl)carbamate] are within 1.5-fold of each other in IC50: 6.5 nM for the first, 5 nM for the second.

Compared with COc1cc(-c2ccc(OC[C@@](C)(N)CC(C)C)c(C)c2)ccn1 [Example 386, (S)-1-(4-(2-methoxypyridin-4-yl)-2-methylphenoxy)-2,4-dimethylpentan-2-amine], Cc1nc(-c2ccnc(C(F)(F)F)c2)ccc1OC[C@@](C)(N)CC(C)C [Example 348, (S)-2,4-dimethyl-1-((6-methyl-2′-(trifluoromethyl)-[2,4′-bipyridin]-5-yl)oxy)pentan-2-amine] is 39-fold higher in IC50: 13 nM for the first, 512 nM for the second. The first is the more potent here.

Cc1nccc(-c2cnc(OC[C@](C)(N)CC(C)C)c(C)c2)n1 [Example 263, (R)-2,4-dimethyl-1-((3-methyl-5-(2-methylpyrimidin-4-yl)pyridin-2-yl)oxy)pentan-2-amine] and Cc1nccc(-c2cc(C#N)c(OC[C@@](C)(N)CC(C)C)cn2)n1 [Example 487, (S)-5-(2-amino-2,4-dimethylpentyloxy)-2-(2-methylpyrimidin-4-yl)isonicotinonitrile] are within 1.5-fold of each other in IC50: 950 nM for the first, 1290 nM for the second.

Compared with CC(C)C[C@](C)(N)COc1ccc(-c2ccnc(C(F)F)n2)nc1C(F)F [Example 319, (S)-1-((2-(difluoromethyl)-6-(2-(difluoromethyl)pyrimidin-4-yl)pyridin-3-yl)oxy)-2,4-dimethylpentan-2-amine], COC(=O)Nc1nccc(-c2ccc(OC[C@@](C)(N)CC(C)C)c(C(F)F)n2)n1 [Example 323, (S)-methyl (4-(5-((2-amino-2,4-dimethylpentyl)oxy)-6-(difluoromethyl)pyridin-2-yl)pyrimidin-2-yl)carbamate] is 1.6-fold higher in IC50: 0.5 nM for the first, 0.8 nM for the second. The first is the more potent here.

Compared with COC(=O)Nc1nccc(-c2ccc(OC[C@@](C)(N)CC(C)C)c(C)n2)n1 [Example 312, (S)-methyl (4-(5-((2-amino-2,4 dimethylpentyl)oxy)-6-methylpyridin-2-yl)pyrimidin-2-yl)carbamate], COC(=O)Nc1nccc(-c2cnc(OC[C@](C)(N)CC(C)C)c(Cl)c2)n1 [Example 304, (R)-methyl(4-(6-((2-amino-2,4-dimethylpentyl)oxy)-5-chloropyridin-3-yl)pyrimidin-2-yl)carbamate] is 61-fold higher in IC50: 4.9 nM for the first, 298 nM for the second. The first is the more potent here.

CCC(C)CC(=O)Nc1cc(-c2ccc(OC[C@@](C)(N)CC(C)C)c(C(F)(F)F)c2)ccn1 (stereo partly drawn) [Example 396, N-(4-(4-(((S)-2-amino-2,4-dimethylpentyl)oxy)-3-(trifluoromethyl)phenyl)pyridin-2-yl)-3-methylpentanamide] and COC(=O)Nc1cc(-c2ccc(OC[C@@](C)(N)CC(C)C)c(CF)n2)ccn1 [Example 280, (S)-methyl (5-((2-amino-2,4-dimethylpentyl)oxy)-6-(fluoromethyl)-[2,4′-bipyridin]-2′-yl)carbamate] are within 1.5-fold of each other in IC50: 1.6 nM for the first, 1.1 nM for the second.
